ChEMBL document CHEMBL1201862, “PubChem BioAssay data set” (2004)
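Cultured in 96-well plates, cells were exposed to test compound for 48 hours across five concentrations. Here, GI50 denotes the concentration required for 50% inhibition of growth.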 Active and inactive are the calls of the source. Cut-off read from the data, not from the text of the source: active = GI50 up to about 1.1 µM and inactive = higher.

Assays:
Experiment in all cases: NCI-60 cell line screen, 48 h
KM12 = test system: KM12
A498 = test system: A498
HCT-116 = test system: HCT-116
EKVX = test system: EKVX
SF-268 = test system: SF-268
HL-60 = test system: HL-60
HT-29 = test system: HT-29
COLO 205 = test system: COLO 205
SK-MEL-5 = test system: SK-MEL-5
UACC-257 = test system: UACC-257
SR = test system: SR
NCI-H460 = test system: NCI-H460
CCRF-CEM = test system: CCRF-CEM
HOP-62 = test system: HOP-62
SN12C = test system: SN12C
UO-31 = test system: UO-31
NCI-H522 = test system: NCI-H522
RPMI-8226 = test system: RPMI-8226
LOX IMVI = test system: LOX IMVI
RXF 393 = test system: RXF 393

Measured: GI50

O/N=N/c1ccc(Sc2ccc(/N=N/O)cn2)nc1
inactive: KM12 > 100 µM | A498 > 100 µM | HCT-116 > 100 µM | EKVX > 100 µM | SF-268 > 100 µM | HL-60 > 100 µM | HT-29 > 100 µM | COLO 205 > 100 µM | SK-MEL-5 > 100 µM | UACC-257 > 100 µM | SR > 100 µM | NCI-H460 > 100 µM | CCRF-CEM > 100 µM | HOP-62 > 100 µM | SN12C > 100 µM | UO-31 46.8 µM | NCI-H522 > 100 µM

O/N=N/c1ccc2ccccc2n1
inactive: KM12 > 100 µM | RPMI-8226 > 100 µM | A498 72.9 µM | HCT-116 > 100 µM | EKVX 90.2 µM | SF-268 > 100 µM | HL-60 > 100 µM | HT-29 > 100 µM | COLO 205 > 10 µM | SK-MEL-5 > 100 µM | UACC-257 > 100 µM | SR > 100 µM | NCI-H460 > 100 µM | CCRF-CEM > 100 µM | HOP-62 > 100 µM | SN12C > 100 µM | LOX IMVI > 100 µM | UO-31 > 100 µM | NCI-H522 > 100 µM

COC1=CC(=O)C2[C@H]3Cc4ccccc4[C@H]3C2(C)C1=O (some centres not stated)
inactive: KM12 > 100 µM | RPMI-8226 > 100 µM | A498 > 100 µM | EKVX > 100 µM | SF-268 > 100 µM | HT-29 > 100 µM | COLO 205 > 100 µM | SK-MEL-5 > 100 µM | UACC-257 > 100 µM | SR 70.3 µM | NCI-H460 > 100 µM | CCRF-CEM 55.2 µM | RXF 393 > 100 µM | HOP-62 > 100 µM | LOX IMVI > 100 µM | UO-31 34.7 µM | NCI-H522 68.4 µM

O=C1CC(O)c2c(Cl)sc(Cl)c21 (configuration not stated)
inactive: KM12 3.9 µM | RPMI-8226 7.19 µM | A498 22.1 µM | HCT-116 3.83 µM | EKVX 18.7 µM | SF-268 3.66 µM | HT-29 2.88 µM | COLO 205 5.12 µM | SK-MEL-5 17.1 µM | UACC-257 9.98 µM | SR 2.71 µM | NCI-H460 22.8 µM | CCRF-CEM 1.7 µM | RXF 393 3.68 µM | HOP-62 14.1 µM | SN12C 11.3 µM | LOX IMVI 2.08 µM | UO-31 6.49 µM

COC(=O)C1(C(=O)OC)Cc2ccc(OC)cc2C2=C1C(=O)c1ccccc1C2=O
inactive: KM12 6.85 µM | A498 18.3 µM | HCT-116 3.24 µM | EKVX 4.46 µM | SF-268 6.67 µM | HL-60 2.24 µM | HT-29 14.4 µM | COLO 205 20.3 µM | SK-MEL-5 7.4 µM | UACC-257 2.48 µM | SR 3.54 µM | NCI-H460 16.1 µM | CCRF-CEM 2.15 µM | HOP-62 7.08 µM | SN12C 4.42 µM | LOX IMVI 2.17 µM | UO-31 3.69 µM | NCI-H522 3.45 µM

C/C(CN1C(=O)c2ccccc2C1=O)=N\NS(=O)(=O)c1ccc(C)cc1
inactive: KM12 > 100 µM | RPMI-8226 > 100 µM | A498 > 100 µM | HCT-116 > 100 µM | EKVX > 100 µM | HL-60 > 100 µM | HT-29 > 100 µM | COLO 205 > 100 µM | SK-MEL-5 > 100 µM | UACC-257 > 100 µM | SR > 100 µM | NCI-H460 > 100 µM | CCRF-CEM > 100 µM | HOP-62 > 100 µM | SN12C > 100 µM | UO-31 > 100 µM | NCI-H522 > 100 µM

C=Nc1ccc([N+](=O)[O-])cc1
inactive: KM12 > 100 µM | RPMI-8226 > 31.6 µM | A498 > 100 µM | HCT-116 > 100 µM | EKVX > 100 µM | SF-268 > 100 µM | HL-60 > 62.7 µM | HT-29 > 100 µM | COLO 205 > 100 µM | SK-MEL-5 > 100 µM | UACC-257 > 100 µM | SR > 41.5 µM | NCI-H460 > 59.4 µM | CCRF-CEM > 63.1 µM | SN12C > 65.3 µM | LOX IMVI 43.5 µM | UO-31 > 84.9 µM | NCI-H522 > 100 µM

O=c1onc2n1-c1cc(Cl)ccc1C(=S)N1CSCC21 (configuration not stated)
inactive: KM12 89.7 µM | RPMI-8226 > 100 µM | A498 > 100 µM | HCT-116 > 100 µM | EKVX > 100 µM | SF-268 > 100 µM | HT-29 > 100 µM | COLO 205 > 100 µM | SK-MEL-5 > 100 µM | UACC-257 > 100 µM | SR 34.6 µM | NCI-H460 > 100 µM | CCRF-CEM 55.8 µM | RXF 393 > 100 µM | HOP-62 > 100 µM | SN12C > 100 µM | LOX IMVI > 100 µM | UO-31 > 100 µM | NCI-H522 > 100 µM

Brc1ccc2nc(-c3cccs3)nc(N3CCN(c4ccccc4)CC3)c2c1
inactive: KM12 > 100 µM | RPMI-8226 > 100 µM | A498 > 100 µM | HCT-116 > 100 µM | EKVX > 100 µM | SF-268 > 100 µM | HL-60 > 100 µM | HT-29 > 100 µM | COLO 205 > 100 µM | SK-MEL-5 > 100 µM | UACC-257 > 100 µM | SR > 100 µM | NCI-H460 > 100 µM | HOP-62 > 100 µM | SN12C > 100 µM | LOX IMVI > 100 µM | UO-31 > 100 µM | NCI-H522 > 100 µM

COc1cc(C2c3cc4c(c(O)c3C(=O)C3CCC(=O)N32)OCO4)cc(OC)c1OC (configuration not stated)
inactive: KM12 51.9 µM | RPMI-8226 92.7 µM | A498 39.9 µM | HCT-116 56.4 µM | EKVX > 100 µM | SF-268 57 µM | HL-60 45 µM | HT-29 42.9 µM | COLO 205 5.52 µM | SK-MEL-5 23.9 µM | UACC-257 > 100 µM | SR 44.8 µM | NCI-H460 52.6 µM | CCRF-CEM 31.3 µM | HOP-62 82.8 µM | SN12C > 100 µM | LOX IMVI 52.5 µM | UO-31 26.7 µM | NCI-H522 16.9 µM

CN(C)CS/C(N)=N\C(O)C(Cl)(Cl)Cl (configuration not stated)
inactive: KM12 > 100 µM | A498 > 100 µM | HCT-116 > 100 µM | EKVX > 100 µM | SF-268 > 100 µM | HT-29 > 100 µM | SK-MEL-5 > 100 µM | UACC-257 > 100 µM | SR 82.2 µM | NCI-H460 > 100 µM | CCRF-CEM 51.6 µM | RXF 393 > 100 µM | HOP-62 > 100 µM | SN12C > 100 µM | LOX IMVI > 100 µM | UO-31 > 100 µM | NCI-H522 > 100 µM
